# Data reported in patent US20080234254A1, “Inhibitors of Histone Deacetylase” (UNIVERSITY OF LEEDS, priority 2004, published 2008).
# Like-named read-outs stand apart in the source and are kept apart here.
# Experiments:
# [1] = system: 786-0; experiment: Comparison test versus MS275: 786-0 (renal cancer); format: cell-based; settings: Homo sapiens, read-out: potency (quantity not named; values match GI50 of Table 1)
# Text: 7 renal cancer cell lines were screened against both compound (4) and MS275.
# [2] = system: IGROV1; experiment: Screening against cancer cell lines: IGROV1 (Ovarian); format: cell-based
# Text: Screening of Benzamide Derivatives Against Cancer Cell Lines Tables 1 and 2 tabulate by way of example the results obtained for compounds (4) and (6).
# 6 ovarian cancer cell lines were screened against both compound (4) and MS275.
structure (smiles),measurement,setting,value
"C=C(CN1CCc2ccccc2C1)c1ccc(C(=O)Nc2ccccc2N)cc1 [Compound (4), N-(2-Amino-phenyl)-4-[1-(3,4-dihydroisoquinolin-2(1H)-ylmethyl)vinyl]benzamide]",GI50,[1],1050 nM
same,GI50,"[2]; Homo sapiens, IGROV-1, IGROV1, Ovarian, Table 1, read-out: GI50",245 nM
same,CC50,"[2]; Homo sapiens, IGROV-1, IGROV1, Ovarian, Table 1, read-out: LC50 (the source's name)",> 50 µM
same,GI50,"[2]; Homo sapiens, IGROV-1, IGROV1, ovarian cancer, comparison versus MS275, read-out: potency (quantity not named; values match GI50 of Table 1)",250 nM
same,TGI,"[2]; IGROV1, Ovarian, Table 1",10.5 µM
